Measurements taken from US20220127297A1, “Novel Antibacterial 3"-Derivatives Of 4,6-Disubstituted 2,5-Dideoxystreptamine Aminoglycoside Antibiotics” (AGILeBiotics B.V., priority 2018, published 2022).
Values after ≈ are worked out from the molar mass of the structure shown.

Each compound was assayed on E. coli (AAC(6′)Ie-APH(2″)Ia) (assay: MIC 50, broth micro-dilution, E. coli expressing AAC(6′)Ie-APH(2″)Ia). Details: ATCC25922 harboring plasmid encoding AAC(6′)Ie-APH(2″)Ia.
Type: cell-based, Escherichia coli
Protocol: Plasmid transformation. Approximately 500 ng of the pET-9b(+) (Cat. No. 69432-3, Merck), pAT21-1 (provided by Prof. Dr. Patrice Courvalin, M.D., Pasteur Institute, France; prepared according to Trieu-Cuot et. al, Mol. Gen. Genet. 198(2), 348 (1985)), pBluescript::AAC(6′)-Ie/APH(2″)-Ia (provided by Prof. Dr. Sergei Vakulenko, M.D., University of Notre Dame, Ind., USA; prepared according to S. B. Vakulenko et. al., J. Biol. Chem. 287 (52), 43262 (2012)), pBlue_lpp_aacC3_rrnC and pSET152 (Cat. No. PVT3395, Life Science Market; prepared according to Bierman et al., Gene 116 (1), 43 (1992)) plasmids, encoding APH(3′)-Ia (SEQ ID NO:2), APH(3′)-IIIa (SEQ ID NO:3), AAC(6′)Ie-APH(2″)-Ia (SEQ ID NO:4), AAC(3)-III (SEQ ID NO:1), and AAC(3)-IV (SEQ ID NO:5) respectively, were individually incubated in a vial of competent cells for 15 min on ice. The cells were subsequently heated to 42° C. for 90 s, and cooled on ice for 1 min. After addition of 900 μL LB, the cells were incubated for 1 h at 37° C. and 200 rpm. Cells were plated on LB-agar supplemented with 50 μg/mL KanaA and incubated for 18 h at 37° C. The next day, a single colony was inoculated in 5 mL LB supplemented with 50 μg/mL and grown for 18 h at 37° C. and 200 rpm. A 200 μL sample of each culture was diluted with 200 μL of 40% v/v glycerol in water, and stored at −80° C. The plasmid was purified from the remaining culture using the Plasmid Miniprep kit. Plasmid DNA was investigated by Eurofins Genomics (Germany) to confirm the identity of the aminoglycoside resistance genes.
3.1 Against E. coli Strains
Tested reference compounds. Amikacin sulfate (Cat. No. 01693, Chem-Impex), Gentamicin sulfate (Cat. No. G4918, Sigma Aldrich).
Microbial strains. E. coli ATCC 25922, E. coli ATCC 25922/pET-9b(+), E. coli ATCC 25922/pAT21-1, E. coli ATCC 25922/pBluescript::AAC(6′)-Ie/APH(2″)-Ia, E. coli ATCC 25922/pBlue_lpp_aacC3_rrnC, E. coli ATCC 25922/pSET152.
Culture media and equipment. BBL™ Mueller Hinton Broth 2 (Lot. BCBW1143, Cat. No. 70192, Sigma); Kanamycin A (Cat. No. A1493, AppliChem); 96-well deep well plate, 1 mL (Cat. No. 0030506.200, Eppendorf); Plate lids (Cat. No. 0030131.525, Eppendorf); 96-well plate, F-bottom (Cat. No. 781602, Brand; Incubator, Infors Multitron Pro); Laminar flow (Heraeus KS12); UV/VIS meter (Eppendorf BioPhotometer Plus); Platereader (Tecan Sunrise).
Compound preparation. Compounds were prepared in MH2 media at a concentration of 5 mM and stored at 4° C. For testing, solutions of 128 μM were prepared in MH2. Out of these working solutions, 400 μL was transferred to wells in the first column of 96-well deep well plates. Each compound was transferred in triplicate. Plates were previously filled with 200 μL of MH2 media in all wells except for the wells in the first column. After compound and antibiotic addition, the compounds were serial two-fold diluted by transferring 200 μL from the first to the second column, then from the second to the third column and so on. Finally, 200 μL was removed from the last column.
Inoculum preparation. Microorganisms used were all revived from 20% glycerol (40% v/v glycerol in water was diluted with MH2) storage at −80° C. by inoculating them in 5 mL MH2. inoculums of E. coli containing a plasmid were selected for by adding 50 μg/mL KanaA. The Inoculums were grown to an optical density (measured by UV/Vis spectroscopy) of 0.6-0.8 at 600 nm. Out of these suspensions, actual inoculums were prepared by diluting them to an optical density (OD) of 0.1 in MH2 media. From these inoculums, 200 μL was transferred to each well, resulting in a final compound concentration range of 64 μM-31.3 nM. All plates were incubated at 900 rpm and 70% rH for 18 h at 37° C.
MIC determination. After 18 h of growth, 200 μL was transferred to a 96-well F-bottom plate. The optical density was determined by a plate reader at 600 nm, with 10 s shaking before reading. Triplicate measurements were averaged, and a growth curve was plotted in Microsoft Excel. […]

SMILES | MIC50 [µM]
NCCC(O)C(=O)NC1CC(N)C(OC2OC(CN)C(O)C(O)C2N)C(O)C1OC1OC(CO)C(O)C(N)C1O (centres unmarked) [ABX4001, KanaB-AHB] | 4 to 8
N=C(N)NC1[C@@H](O)C(OC2[C@@H](O)[C@H](O[C@H]3OC(CN)[C@@H](O)CC3N)C(N)C[C@H]2NC(=O)[C@@H](O)CCN)O[C@H](CO)[C@H]1O (some centres unmarked) [ABX5005, Tobra-AHB-Gua] | 2 (≈ 1.22 µg/mL)
NCC[C@H](O)C(=O)N[C@@H]1CC(N)[C@@H](O[C@H]2OC(CN)[C@@H](O)[C@@H](O)C2N)[C@H](O)C1OC1O[C@H](CO)[C@@H](O)C(N)[C@H]1O (stereo partly drawn) [ABX4002, 3′Epi-KanaB-AHB] | 4 to 8
N=C(N)N[C@@H]1[C@@H](O)[C@@H](O[C@@H]2[C@@H](O)[C@H](O[C@H]3O[C@H](CN)[C@@H](O)[C@@H](O)[C@H]3N)[C@@H](N)C[C@H]2NC(=O)[C@@H](O)CCN)O[C@H](CO)[C@H]1O [ABX4005, 3′Epi-KanaB-AHB-Gua] | 8 (≈ 5.01 µg/mL)
N=C(N)NC1[C@@H](O)C(OC2[C@@H](F)[C@H](O[C@H]3OC(CN)[C@@H](O)[C@H](O)C3N)C(N)C[C@H]2NC(=O)[C@@H](O)CCN)O[C@H](CO)[C@H]1O (stereo partly drawn) [ABX4004, 3′epi-KanaB-AHB-F-Gua] | 2 (≈ 1.26 µg/mL)
N=C(N)NC1[C@@H](O)C(OC2[C@@H](O)[C@H](O[C@H]3OC(CN)[C@@H](O)[C@H](O)C3N)C(N)C[C@H]2NC(=O)[C@@H](O)CCN)O[C@H](CO)[C@H]1O (some centres unmarked) [ABX4009, KanaB-AHB-Gua] | 2 to 4
NCC[C@H](O)C(=O)N[C@@H]1CC(N)[C@@H](O[C@H]2OC(CN)[C@@H](O)CC2N)[C@H](F)C1OC1O[C@H](CO)[C@@H](O)C(N)[C@H]1O (some centres unmarked) [ABX5024, Tobra-AHB-F] | 1 (≈ 0.571 µg/mL)
NCC[C@H](O)C(=O)N[C@@H]1CC(N)[C@@H](O[C@H]2OC(CN)[C@@H](O)[C@@H](O)C2N)[C@H](F)C1OC1O[C@H](CO)[C@@H](O)C(N)[C@H]1O (stereo partly drawn) [ABX4003, 3′Epi-KanaB-AHB-F] | 8 (≈ 4.69 µg/mL)
NCCC(O)C(=O)NC1CC(N)C(OC2OC(CN)C(O)C(O)C2O)C(F)C1OC1OC(CO)C(O)C(N)C1O (stereo not drawn) [ABX3005, 3′Epi-KanaA-AHB-F] | 4 (≈ 2.35 µg/mL)

Same assay, conditions: Escherichia coli, ATCC25922, ATCC25922 harboring plasmid encoding AAC(6′)Ie-APH(2″)Ia

SMILES | MIC50 [µM]
N=C(NCCN)NC1C(O)[C@@H](CO)OC(OC2C(F)[C@H](O[C@H]3OC(CN)[C@@H](O)CC3N)C(N)C[C@H]2NC(=O)[C@@H](O)CCN)[C@@H]1O (some centres unmarked) [ABX5020, Tobra-AHB-F-Gua-2-amino-ethyl] | 0.5 (≈ 0.328 µg/mL)
N=C(NC[C@@H]1CCNC1)NC1[C@@H](O)C(OC2[C@@H](F)[C@H](O[C@H]3OC(CN)[C@@H](O)CC3N)C(N)C[C@H]2NC(=O)[C@@H](O)CCN)O[C@H](CO)[C@H]1O (stereo partly drawn) [ABX5039, Tobra-AHB-F-Gua (R) pyrrolidine-3-ylmethyl] | 0.25 (≈ 0.174 µg/mL)
N=C(NCCO)NC1[C@@H](O)C(OC2[C@@H](F)[C@H](O[C@H]3OC(CN)[C@@H](O)CC3N)C(N)C[C@H]2NC(=O)[C@@H](O)CCN)O[C@H](CO)[C@H]1O (some centres unmarked) [ABX5029, Tobra-AHB-F-Gua 2-hydroxy-ethyl] | 0.5 to 1 (≈ 0.328 to 0.657 µg/mL)
N=C(NCCCO)NC1[C@@H](O)C(OC2[C@@H](F)[C@H](O[C@H]3OC(CN)[C@@H](O)CC3N)C(N)C[C@H]2NC(=O)[C@@H](O)CCN)O[C@H](CO)[C@H]1O (some centres unmarked) [ABX5041, Tobra-AHB-F-Gua 3-hydroxy-propyl] | 0.5 (≈ 0.335 µg/mL)
N=C(N)NC1[C@@H](O)C(OC2[C@@H](F)[C@H](O[C@H]3OC(CN)[C@@H](O)[C@H](O)C3N)C(N)C[C@H]2NC(=O)[C@@H](O)CCN)O[C@H](CO)[C@H]1O (some centres unmarked) [ABX4006, KanaB-AHB-F-Gua] | 1 (≈ 0.629 µg/mL)
N=C(NCC1CC1)NC1[C@@H](O)C(OC2[C@@H](F)[C@H](O[C@H]3OC(CN)[C@@H](O)CC3N)C(N)C[C@H]2NC(=O)[C@@H](O)CCN)O[C@H](CO)[C@H]1O (some centres unmarked) [ABX5027, Tobra-AHB-F-Gua cyclopropylmethyl] | 0.5 (≈ 0.333 µg/mL)
N=C(NC[C@@H]1CNCCO1)NC1[C@@H](O)C(OC2[C@@H](F)[C@H](O[C@H]3OC(CN)[C@@H](O)CC3N)C(N)C[C@H]2NC(=O)[C@@H](O)CCN)O[C@H](CO)[C@H]1O (stereo partly drawn) [ABX5040, Tobra-AHB-F-Gua (S) morpholin-2-yl methyl] | 0.25 (≈ 0.178 µg/mL)
C[C@@H](N)CCNC(=N)NC1[C@@H](O)C(OC2[C@@H](F)[C@H](O[C@H]3OC(CN)[C@@H](O)CC3N)C(N)C[C@H]2NC(=O)[C@@H](O)CCN)O[C@H](CO)[C@H]1O (stereo partly drawn) [ABX5047, Tobra-AHB-F-Gua (R) 3-amino-butyl] | 0.25 (≈ 0.171 µg/mL)
N=C(NC[C@H]1CCNC1)NC1[C@@H](O)C(OC2[C@@H](F)[C@H](O[C@H]3OC(CN)[C@@H](O)CC3N)C(N)C[C@H]2NC(=O)[C@@H](O)CCN)O[C@H](CO)[C@H]1O (stereo partly drawn) [ABX5042, Tobra-AHB-F-Gua (S) pyrrolidine-3-ylmethyl] | 0.25 (≈ 0.174 µg/mL)
N=C(NC[C@H]1CNCCO1)NC1[C@@H](O)C(OC2[C@@H](F)[C@H](O[C@H]3OC(CN)[C@@H](O)CC3N)C(N)C[C@H]2NC(=O)[C@@H](O)CCN)O[C@H](CO)[C@H]1O (stereo partly drawn) [ABX5043, Tobra-AHB-F-Gua (R) morpholin-2-yl methyl] | 0.25 (≈ 0.178 µg/mL)
N=C(N)NC1C(O)[C@@H](CO)OC(OC2C(F)[C@H](O[C@H]3OC(CN)[C@@H](O)CC3N)C(N)C[C@H]2NC(=O)[C@@H](O)CCN)[C@@H]1O (some centres unmarked) [ABX5006, Tobra-AHB-F-Gua] | < 0.25
CC(C)(C)CCNC(=N)NC1[C@@H](O)C(OC2[C@@H](F)[C@H](O[C@H]3OC(CN)[C@@H](O)CC3N)C(N)C[C@H]2NC(=O)[C@@H](O)CCN)O[C@H](CO)[C@H]1O (some centres unmarked) [ABX5025, Tobra-AHB-F-Gua 2-tBu-ethyl] | 0.5 (≈ 0.348 µg/mL)
N=C(NCC1CCCO1)NC1[C@@H](O)C(OC2[C@@H](F)[C@H](O[C@H]3OC(CN)[C@@H](O)CC3N)C(N)C[C@H]2NC(=O)[C@@H](O)CCN)O[C@H](CO)[C@H]1O (some centres unmarked) [ABX5046, Tobra-AHB-F-Gua tetrahydrofuran-2-yl methyl] | 0.5 (≈ 0.348 µg/mL)
N=C(NC[C@@H]1CCCN1)NC1[C@@H](O)C(OC2[C@@H](F)[C@H](O[C@H]3OC(CN)[C@@H](O)CC3N)C(N)C[C@H]2NC(=O)[C@@H](O)CCN)O[C@H](CO)[C@H]1O (stereo partly drawn) [ABX5026, Tobra-AHB-F-Gua (S) pyrrolidine-2-yl-methyl] | 0.25 to 0.5 (≈ 0.174 to 0.348 µg/mL)
N=C(NCCCN)NC1[C@@H](O)C(OC2[C@@H](F)[C@H](O[C@H]3OC(CN)[C@@H](O)CC3N)C(N)C[C@H]2NC(=O)[C@@H](O)CCN)O[C@H](CO)[C@H]1O (some centres unmarked) [ABX5030, Tobra-AHB-F-Gua-3-amino-propyl] | 0.25 to 0.5 (≈ 0.167 to 0.335 µg/mL)
N=C(NCC1CCOC1)NC1[C@@H](O)C(OC2[C@@H](F)[C@H](O[C@H]3OC(CN)[C@@H](O)CC3N)C(N)C[C@H]2NC(=O)[C@@H](O)CCN)O[C@H](CO)[C@H]1O (some centres unmarked) [ABX5051, Tobra-AHB-F-Gua tetrahydrofuran-3-yl methyl] | 0.5 (≈ 0.348 µg/mL)
CNCCNC(=N)NC1[C@@H](O)C(OC2[C@@H](F)[C@H](O[C@H]3OC(CN)[C@@H](O)CC3N)C(N)C[C@H]2NC(=O)[C@@H](O)CCN)O[C@H](CO)[C@H]1O (some centres unmarked) [ABX5038, Tobra-AHB-F-Gua 2-(methylamino)ethyl] | 0.25 (≈ 0.167 µg/mL)
